# Tests used:
# ΔF508-CFTR [1] = biological target: T1, ΔF508-CFTR (Homo sapiens, UniProt P13569, DEL508-508); experiment: CFTR cell surface levels using HRP-tagged ΔF508-CFTR expressing CFBE cells, in the presence of a co-corrector; format: cell-based; conditions: HRP-tagged ΔF508-CFTR expressing CFBE cells, in the presence of 3 μM co-corrector; for EC50: read-out: EC50
# T1 construct: host or cells: CFBE41o-, doxycycline-inducible
# Method in brief: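 Cells were seeded with 0.5 μg/mL doxycycline and held 68 h at 37 °C. Test compounds plus 3 μM co-corrector (final 0.1% DMSO) were then added for 20 h at 33 °C. Washed cells received HRP substrate, and luminescence was normalized between DMSO and 3 μM co-corrector controls.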
# ΔF508-CFTR [2] = biological target: T1, ΔF508-CFTR; experiment: CFTR cell surface levels using HRP-tagged ΔF508-CFTR expressing CFBE cells, intrinsic corrector capacity; format: cell-based; conditions: for EC50: read-out: EC50
# Method in brief: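 Here the cells express ΔF508-CFTR with horseradish peroxidase inserted in extracellular loop 4, so only rescued channel at the surface gives luminescent signal. Compounds act on their own, 20 h at the reduced temperature of 33 °C; values are percent activity relative to DMSO and a 3 μM corrector.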
# [3] = HRP-tagged ΔF508-CFTR expressing CFBE cells, intrinsic corrector capacity (no co-corrector), 33° C., 20 hours
# [4] = HRP-tagged ΔF508-CFTR CFBE cells, compound alone (intrinsic corrector capacity), 20 hours at 33° C.
# T1 sequence (P13569 with tags, fused parts or gaps DEL508-508): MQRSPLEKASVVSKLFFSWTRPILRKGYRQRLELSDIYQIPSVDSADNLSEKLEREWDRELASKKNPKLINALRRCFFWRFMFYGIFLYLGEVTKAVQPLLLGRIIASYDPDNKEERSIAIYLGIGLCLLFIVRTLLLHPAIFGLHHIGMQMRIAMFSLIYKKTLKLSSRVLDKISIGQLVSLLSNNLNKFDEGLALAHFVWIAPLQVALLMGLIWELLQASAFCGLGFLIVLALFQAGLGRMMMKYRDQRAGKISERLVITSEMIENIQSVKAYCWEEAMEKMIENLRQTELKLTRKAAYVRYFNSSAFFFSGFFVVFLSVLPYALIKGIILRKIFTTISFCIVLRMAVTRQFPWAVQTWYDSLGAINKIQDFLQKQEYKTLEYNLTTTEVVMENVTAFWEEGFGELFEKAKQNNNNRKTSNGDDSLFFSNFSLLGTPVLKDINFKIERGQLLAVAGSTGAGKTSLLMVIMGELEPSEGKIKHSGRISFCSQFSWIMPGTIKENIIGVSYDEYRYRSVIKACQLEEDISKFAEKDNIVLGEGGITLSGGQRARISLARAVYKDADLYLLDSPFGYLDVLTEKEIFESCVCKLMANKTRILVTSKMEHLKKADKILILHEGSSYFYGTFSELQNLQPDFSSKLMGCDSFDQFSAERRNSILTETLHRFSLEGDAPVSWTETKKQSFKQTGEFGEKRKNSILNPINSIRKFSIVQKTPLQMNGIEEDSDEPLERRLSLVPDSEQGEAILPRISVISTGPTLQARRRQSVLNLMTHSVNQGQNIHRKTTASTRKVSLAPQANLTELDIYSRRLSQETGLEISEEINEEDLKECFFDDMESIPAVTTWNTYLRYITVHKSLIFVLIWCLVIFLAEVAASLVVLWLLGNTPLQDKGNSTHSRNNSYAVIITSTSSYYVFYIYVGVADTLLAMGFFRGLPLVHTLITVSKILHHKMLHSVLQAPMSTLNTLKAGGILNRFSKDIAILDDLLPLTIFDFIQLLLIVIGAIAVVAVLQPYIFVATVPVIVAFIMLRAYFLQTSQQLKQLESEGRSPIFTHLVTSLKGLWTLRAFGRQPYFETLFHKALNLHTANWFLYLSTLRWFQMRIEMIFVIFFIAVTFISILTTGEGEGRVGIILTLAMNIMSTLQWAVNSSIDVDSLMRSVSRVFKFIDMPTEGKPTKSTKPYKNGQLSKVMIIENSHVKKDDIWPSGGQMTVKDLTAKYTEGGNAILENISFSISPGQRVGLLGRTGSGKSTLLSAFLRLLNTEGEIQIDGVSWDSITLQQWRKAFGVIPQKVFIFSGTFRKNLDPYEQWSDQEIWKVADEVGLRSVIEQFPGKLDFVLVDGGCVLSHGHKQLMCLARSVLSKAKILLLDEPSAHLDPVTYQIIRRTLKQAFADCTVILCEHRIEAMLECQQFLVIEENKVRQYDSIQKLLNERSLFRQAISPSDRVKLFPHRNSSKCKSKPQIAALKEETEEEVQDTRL
SMILES,% Activation (ΔF508-CFTR [1]),EC50 (ΔF508-CFTR [1]),% Activation (ΔF508-CFTR [2]; [3]),EC50 (ΔF508-CFTR [2]; [3]),% Activation (ΔF508-CFTR [2]; [4]),EC50 (ΔF508-CFTR [2]; [4])
"O=C(O)c1cc(N2CCC3C(CCN3C3CCOCC3)C2)c2c(C3CCC3)nn(-c3ccc(F)cc3)c2n1 (stereo not drawn) [compound 903, 3-cyclobutyl-1-(4-fluorophenyl)-4-[1-(oxan-4-yl)octahydro-5H-pyrrolo[3,2-c]pyridin-5-yl]-1H-pyrazolo[3,4-b]pyridine-6-carboxylic acid]",480.55%,108 nM,275.8%,331 nM,,
"O=C(O)c1cc(N2CCC3(CC2)CCN(C2COC2)CC3)c2c(C3CCC3)nn(-c3ccc(F)cc3)c2n1 [compound 904, 3-cyclobutyl-1-(4-fluorophenyl)-4-[9-(oxetan-3-yl)-3,9-diazaspiro[5.5]undecan-3-yl]-1H-pyrazolo[3,4-b]pyridine-6-carboxylic acid]",372.85%,102 nM,200.1%,237 nM,,
"O=C(O)c1cc(N2CCC(N3CCOCC3)CC2)c2c(C3CCC3)nn(-c3cc(F)cc(F)c3)c2n1 [compound 905, 3-cyclobutyl-1-(3,5-difluorophenyl)-4-[4-(morpholin-4-yl)piperidin-1-yl]-1H-pyrazolo[3,4-b]pyridine-6-carboxylic acid]",466.55%,145 nM,278.8%,362 nM,,
"O=C(O)c1cc(N2CCC(N3CCOCC3)CC2)c2c(C3CCC3)nn(-c3ccc4c(c3)OC(F)(F)O4)c2n1 [compound 906, 3-cyclobutyl-1-(2,2-difluoro-2H-1,3-benzodioxo1-5-yl)-4-[4-(morpholin-4-yl)piperidin-1-yl]-1H-pyrazolo[3,4-b]pyridine-6-carboxylic acid]",485.34%,72.8 nM,276.92%,146 nM,,
"O=C(O)c1cc(N2CCC(N3CCOCC3)CC2)c2c(C3CCC3)nn(-c3ccc(F)c(F)c3)c2n1 [compound 907, 3-cyclobutyl-1-(3,4-difluorophenyl)-4-[4-(morpholin-4-yl)piperidin-1-yl]-1H-pyrazolo[3,4-b]pyridine-6-carboxylic acid]",483.65%,183 nM,270.7%,260 nM,,
"COc1cc(-n2nc(C3CCC3)c3c(N4CCC(N5CCOCC5)CC4)cc(C(=O)O)nc32)ccc1F [compound 908, 3-cyclobutyl-1-(4-fluoro-3-methoxyphenyl)-4-[4-(morpholin-4-yl)piperidin-1-yl]-1H-pyrazolo[3,4-b]pyridine-6-carboxylic acid]",486.75%,171 nM,220.2%,256 nM,,
"O=C(O)c1cc(N2CCC(N3CCOCC3)CC2)c2c(C3CCC3)nn(-c3ccc(OC(F)(F)F)cc3)c2n1 [compound 909, 3-cyclobutyl-4-[4-(morpholin-4-yl)piperidin-1-yl]-1-[4-(trifluoromethoxy)phenyl]-1H-pyrazolo[3,4-b]pyridine-6-carboxylic acid]",498.4%,56.2 nM,277.7%,134 nM,,
"O=C(O)c1cc(N2CCC(N3CCOCC3)CC2)c2c(C3CCC3)nn(-c3ccc4c(c3)CC4)c2n1 [compound 911, 1-(bicyclo[4.2.0]octa-1,3,5-trien-3-yl)-3-cyclobutyl-4-[4-(morpholin-4-yl)piperidin-1-yl]-1H-pyrazolo[3,4-b]pyridine-6-carboxylic acid]",405.9%,74 nM,222.45%,190 nM,,
"COc1ccc(-n2nc(C3CCC3)c3c(N4CCC(N5CCOCC5)CC4)cc(C(=O)O)nc32)cc1F [compound 912, 3-cyclobutyl-1-(3-fluoro-4-methoxyphenyl)-4-[4-(morpholin-4-yl)piperidin-1-yl]-1H-pyrazolo[3,4-b]pyridine-6-carboxylic acid]",397.9%,267 nM,212.4%,720 nM,,
"COc1cc(F)cc(-n2nc(C3CCC3)c3c(N4CCC(N5CCOCC5)CC4)cc(C(=O)O)nc32)c1 [compound 913, 3-cyclobutyl-1-(3-fluoro-5-methoxyphenyl)-4-[4-(morpholin-4-yl)piperidin-1-yl]-1H-pyrazolo[3,4-b]pyridine-6-carboxylic acid]",531.4%,163 nM,,,326.3%,1150 nM
"O=C(O)c1cc(N2CCC(N3CCOCC3)CC2)c2c(C3CCC3)nn(-c3ccc(OC(F)F)cc3)c2n1 [compound 914, 3-cyclobutyl-1-[4-(difluoromethoxy)phenyl]-4-[4-(morpholin-4-yl)piperidin-1-yl]-1H-pyrazolo[3,4-b]pyridine-6-carboxylic acid]",429.25%,173 nM,,,228.2%,546 nM
"O=C(O)c1cc(N2CCC(N3CCOCC3)CC2)c2c(C3CCC3)nn(-c3cc(F)ccc3F)c2n1 [compound 916, 3-cyclobutyl-1-(2,5-difluorophenyl)-4-[4-(morpholin-4-yl)piperidin-1-yl]-1H-pyrazolo[3,4-b]pyridine-6-carboxylic acid]",362.05%,1380 nM,,,165.25%,1670 nM
O=C(O)c1cc(N2CCC(N3CCOCC3)CC2)c2c(C3CCC3)nn(-c3ccc(OCCF)nc3)c2n1 [compound 917],306.95%,1670 nM,,,116.67%,1660 nM
"O=C(O)c1cc(N2CCC(N3CCOCC3)CC2)c2c(C3CCC3)nn(-c3ccnc(OC4CCOCC4)c3)c2n1 [compound 918, 3-cyclobutyl-4-[4-(morpholin-4-yl)piperidin-1-yl]-1-{2-[(oxan-4-yl)oxy]pyridin-4-yl}-1H-pyrazolo[3,4-b]pyridine-6-carboxylic acid]",352.1%,479 nM,,,149.75%,712 nM
"O=C(O)c1cc(N2CCC(N3CCOCC3)CC2)c2c(C3CCC3)nn(-c3ccnc(OCC4CCOCC4)c3)c2n1 [compound 919, 3-cyclobutyl-4-[4-(morpholin-4-yl)piperidin-1-yl]-1-{2-[(oxan-4-yl)methoxy]pyridin-4-yl}-1H-pyrazolo[3,4-b]pyridine-6-carboxylic acid]",416.35%,256 nM,,,198.2%,490 nM
"CC(C)Oc1nn(C2CCCCC2)c2nc(C(=O)O)cc(-c3ccc(C#N)cc3)c12 [compound 923, 4-(4-cyanophenyl)-1-cyclohexyl-3-[(propan-2-yl)oxy]-1H-pyrazolo[3,4-b]pyridine-6-carboxylic acid]",263%,380 nM,,,60.466%,355 nM
"COC1CCN(C2CCN(c3cc(C(=O)O)nc4c3c(O)nn4-c3ccc(F)cc3)CC2)CC1 [compound 925, 1-(4-fluorophenyl)-3-hydroxy-4-(4-methoxy[1,4′-bipiperidin]-1′-yl)-1H-pyrazolo[3,4-b]pyridine-6-carboxylic acid]",126.05%,,,,11.745%,
"COC1CCN(C2CCN(c3cc(C(=O)O)nc4c3c(OC(C)C)nn4-c3ccc(F)cc3)CC2)CC1 [compound 926, 1-(4-fluorophenyl)-4-(4-methoxy[1,4′-bipiperidin]-1′-yl)-3-[(propan-2-yl)oxy]-1H-pyrazolo[3,4-b]pyridine-6-carboxylic acid]",486.6%,340 nM,,,240.2%,521 nM
"CN1CCC2(CC1)CCN(c1cc(C(=O)O)nc3c1c(C1CCC1)nn3-c1ccc(F)cc1)CC2 [compound 928, 3-cyclobutyl-1-(4-fluorophenyl)-4-(9-methyl-3,9-diazaspiro[5.5]undecan-3-yl)-1H-pyrazolo[3,4-b]pyridine-6-carboxylic acid]",362.2%,2410 nM,,,284.7%,4030 nM
"CCOC(=O)N1CCN(c2cc(C(=O)O)nc3c2c(C2CCC2)nn3-c2ccc(F)cc2)CC1 [compound 929, 3-cyclobutyl-4-[4-(ethoxycarbonyl)piperazin-1-yl]-1-(4-fluorophenyl)-1H-pyrazolo[3,4-b]pyridine-6-carboxylic acid]",560%,83.2 nM,,,474.3%,181 nM

# Reference: patent US9796711B2, “Substituted pyrazolo[3,4-b]pyridin-6-carboxylic acids and method of use” (AbbVie S.àr.l., priority 2015, dated 2017)
